Here are results for 29 molecules from PubChem BioAssay (NCI).

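All cell lines were grown in 96-well plates and treated with compound for 48 hours. GI50: concentration for 50% inhibition of growth. TGI: concentration producing complete growth inhibition.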 Where a SMILES comes first, the peptide text is derived from it. [ ]: non-standard residue; d: D form. A value given as a limit tells only on which side of the number the result lay.

Experiment in all cases: NCI tumour cell line growth inhibition, 48 h
Assay [1] has as its system UACC-62 melanoma.
Assay [2] deals with SK-MEL-28 melanoma.
The subject of assay [3] is KM12 colon.
The test system of assay [4] is A549 NSCLC.
The test system of assay [5] is M14 melanoma.
For assay [6], the system named is UACC-257 melanoma.
The test system of assay [7] is MALME-3M melanoma.
Assay [8] has as its system HOP-92 NSCLC.
The subject of assay [9] is NCI-H522 lung.
For assay [10], the system named is PC-3 prostate.

In the case of `NC1=Nc2ccccc2Sc2ccccc21`, the TGI in assay [1], in [2], in assay [3], in assay [4], in assay [5] and in [6] was over 100 µM each time. The TGI in assay [7], in assay [8] and in [9] was over 100 µM throughout.
Regarding `O=C(N/C(=C\c1ccc(F)cc1)c1nc2ccccc2[nH]1)c1ccccc1`, the TGI in [1], in assay [2], in assay [3], in [4], in assay [5] and in assay [6] was over 100 µM in each case. Also, the TGI in assay [7], in assay [8] and in [9] was over 100 µM in each case.
Take `CCOc1ccccc1N=Cc1c2ccccc2cc2ccccc12`: the TGI was over 100 µM in [1]; over 73.5 µM in [2]; 49.3 µM in assay [3]; 80.9 µM in assay [4]; 41.1 µM in assay [5]; over 74.4 µM in [6]. Also, the TGI in assay [10] is over 68.8 µM; in [8] it was 53.4 µM.
`CC1(C2CCC3(C)C(C2)C3Sc2ccccc2)OCCO1` (configuration not stated): the TGI in assay [1] was 43.1 µM; in assay [2], 63.6 µM; in assay [3] it was 79.2 µM; in [4], 68 µM; in [5], over 100 µM; in assay [6] it was 41.5 µM. For the same molecule, the TGI was determined as 41.8 µM in assay [7], 56 µM in [8] and 40.9 µM in assay [9].
On to `COC(=O)C(C)Oc1ccc(O)cc1` (configuration not stated), for which the TGI in [1] was over 100 µM; in assay [2], 62 µM; in assay [3] it was over 100 µM; in assay [4] it was over 100 µM; in assay [5], over 100 µM; in [6], over 100 µM. The TGI in [7], in assay [8] and in assay [9] was over 100 µM each time.
Consider `COc1cc(CCc2ccncc2)cc(OC)c1OC`, for which the TGI in assay [1], in [2], in assay [3], in assay [4], in [5] and in [6] was over 100 µM each time. The TGI in assay [7], in [8] and in [9] was over 100 µM throughout.
Take `N#CC(C#N)C(c1ccccc1)c1ccccc1`: the TGI in assay [1], in assay [2], in assay [3], in assay [4], in [5] and in assay [6] was over 100 µM throughout. Further, the TGI in assay [7], in assay [8] and in assay [9] was over 100 µM throughout.
In the case of `CCOC(=O)C(=O)Nc1nc2ccc(C)cc2s1`, the TGI in assay [1], in assay [2], in assay [3], in assay [4], in assay [5] and in assay [6] was over 100 µM throughout. The TGI in assay [7], in [8] and in assay [9] was over 100 µM each time.
Turning to `COc1ccc2c(c1)[nH]c1c3ccc(OC)cc3oc(=O)c21`, the TGI in assay [1], in [2], in assay [3], in [4], in assay [5] and in assay [6] was over 100 µM each time. The TGI in [10], in [7] and in assay [8] was over 100 µM throughout.
For the molecule `Cc1nc(-n2nc(-c3ccccc3)cc2-c2ccccc2)sc1C(=O)/C=C/c1cccc([N+](=O)[O-])c1`, the TGI worked out at 27.5 µM in assay [1]; 34.1 µM in [2]; 11.4 µM in assay [3]; 55.6 µM in assay [4]; 66.1 µM in assay [6]; 41.1 µM in assay [7]. Moreover, the TGI stood at 51.1 µM in [8] and 30.8 µM in [9].
On to `O=C1C(=Cc2ccc(F)cc2)C(=O)c2ccccc21`, for which the TGI in assay [1], in [2], in assay [3], in assay [4], in [5] and in assay [6] was over 100 µM in each case. The TGI in assay [7], in assay [8] and in assay [9] was over 100 µM throughout.
In the case of `COC(=O)C(=O)C(C#N)c1c(Cl)cccc1Cl` (configuration not stated), the TGI in assay [1], in [2], in [4], in assay [5], in assay [6] and in assay [7] was over 100 µM throughout. Moreover, the TGI in [8] and in [9] was over 100 µM each time.
In the case of `CCN1CCC(O)(/C=C/c2ccccc2)C(C(=O)/C=C/c2ccccc2)C1` (configuration not stated), the TGI in assay [1] came out at 3.49 µM; in assay [2] it was 3.91 µM; in assay [3], 3.44 µM; in assay [4] it was 16.8 µM; in [5], 4.13 µM; in assay [6], 4.55 µM. Also, the TGI in assay [7] is 5.09 µM; in assay [8], 8.76 µM; in assay [9] it was 3.36 µM.
Turning to `CSCC[C@H](NC(=O)[C@@H](N)CC(N)=O)C(=O)N[C@@H](Cc1c[nH]c2ccccc12)C(=O)N[C@@H](CCC(N)=O)C(=O)N[C@@H](CCC(=O)O)C(=O)N[C@H](C(=O)NCC(=O)N[C@@H](CCCCN)C(=O)N[C@H](C)C(=O)O)C(C)C` (H-NMWQEVGK[dA]-OH), the TGI in [1], in assay [2], in assay [3], in [4], in assay [5] and in assay [6] was over 100 µM throughout. In addition, the TGI in assay [10], in [7] and in [8] was over 100 µM in each case.
In the case of `C/C(=N\Nc1n[nH]c(=S)n1N)c1c(O)cc(C)oc1=O`, the TGI in assay [1], in [2], in [3], in assay [4], in assay [5] and in assay [6] was over 100 µM each time. Besides, the TGI in assay [7], in [8] and in [9] was over 100 µM in each case.
Take `COc1cc([C@@H]2c3cc4c(cc3[C@@H](NCc3cccc(F)c3)C3COC(=O)[C@@H]32)OCO4)cc(OC)c1O` (some centres not stated): the TGI in assay [1] was determined as 10.3 µM; in [2], 45.9 µM; in [3] it was 17.4 µM; in [4] it was 10.9 µM; in [5], 40.3 µM; in assay [6], 39.6 µM. In addition, the TGI was 21.5 µM in assay [7], over 65 µM in [8] and 19.4 µM in [9].
As to `CC(=O)OC1=C(CC(C)(C)C)C(=O)c2ccccc2C1=O`, the TGI in [1], in assay [2], in assay [3], in assay [5], in assay [6] and in [10] was over 100 µM in each case.
Take `CC(=O)/C(=C/N1CCN(C(=O)c2ccco2)C1=S)C(=O)c1ccccc1`: the GI50 is 7.33 µM in assay [1]; 28 µM in assay [2]; 8.4 µM in assay [3]; 10.8 µM in [4]; 6.32 µM in assay [5]; 17.1 µM in assay [10]. Besides, the results for the GI50 in [7] and in assay [8] were 9.28 µM and 11.1 µM, respectively. Further, the TGI in assay [1] was 16.9 µM; in assay [2], over 50 µM; in [3], over 50 µM; in [4] it was 26.9 µM; in [5], 13.1 µM; in [10], over 50 µM. Moreover, the figures for the TGI in assay [7] and in assay [8] were 46.7 µM and 32.1 µM, respectively.
As to `CC1=C2C3OC(=O)C(C)C3C(O)C[C@@]2(C)C(=O)CC1` (some centres not stated), the TGI in assay [1], in [2], in assay [3], in assay [4], in [5] and in assay [6] was over 100 µM in each case. Besides, the TGI in [7], in [8] and in assay [9] was over 100 µM each time.
Turning to `CC(CC(=O)Nc1ccc(NC(=O)CC(C)N=NC(N)=O)cc1)N=NC(N)=O` (configuration not stated), the TGI in assay [1], in assay [2], in [3], in assay [4], in assay [5] and in assay [6] was over 100 µM throughout. The TGI in assay [7], in assay [8] and in [9] was over 100 µM throughout.
With `CCCCOP1(=O)CC(C)=C(Cl)C(C)(OC)C1` (configuration not stated), the TGI in assay [1], in assay [2], in assay [3], in assay [4], in [5] and in [6] was over 100 µM in each case. The TGI in [7], in assay [8] and in assay [9] was over 100 µM in each case.
Consider `O=C(CCc1cc(-c2ccc(F)cc2)n[nH]1)N(Cc1ccccc1)Cc1ccccc1`, for which the TGI in [1], in assay [2], in [3], in assay [4], in assay [5] and in [6] was over 100 µM each time. Further, the TGI in [7], in assay [8] and in assay [9] was over 100 µM each time.
`Cc1ccc(C)c(NC(=O)C(=O)Nn2c(=S)[nH]c3ccccc3c2=O)c1`: the TGI in [1], in assay [2], in assay [3], in assay [4], in [5] and in assay [6] was over 100 µM throughout. For the same molecule, the TGI in [7], in assay [8] and in [9] was over 100 µM in each case.
In the case of `O/N=C1\C(=C\c2ccc3c(c2)OCCO3)CCCC1C(NO)c1ccc2c(c1)OCCO2` (configuration not stated), the TGI is 31.7 µM in assay [1]; 32.5 µM in [2]; 52 µM in assay [3]; over 100 µM in assay [4]; 34.4 µM in [5]; 49.2 µM in assay [6]. In addition, the values for the TGI in assay [7], in assay [8] and in assay [9] were 63.7 µM, 93.4 µM and 29.6 µM, respectively.
Consider `CC1=CC(=O)N2C(OC[C@@H]2c2ccccc2)O1` (some centres not stated), for which the TGI in assay [1], in assay [2], in assay [3], in assay [4], in assay [5] and in [6] was over 100 µM throughout. The TGI in assay [7], in assay [8] and in assay [9] was over 100 µM each time.
With `COC(=O)C(/C(=N\O)C(=O)Nc1ccc(Br)cc1)c1nc2ccccc2[nH]c1=O` (configuration not stated), the TGI was 73.1 µM in [1]; over 100 µM in [2]; over 100 µM in [3]; over 100 µM in assay [4]; over 100 µM in assay [5]; over 100 µM in assay [6]. For the same molecule, the TGI was over 100 µM in assay [7], 97.6 µM in assay [8] and 32.5 µM in [9].
In the case of `NC(=O)c1nc(-c2ccc(Cl)c(Cl)c2)nc2ccccc12`, the TGI in assay [1] was over 100 µM; in assay [2], over 40.9 µM; in assay [3] it was over 100 µM; in assay [4], over 100 µM; in [5], over 100 µM; in assay [6], over 100 µM. Also, the TGI in [7] was 30 µM; in [8], 4.74 µM; in [9], over 100 µM.
Take `C=CCO[C@H]1CC[C@@]2(C)C(CC[C@]3(C)C2CC=C2[C@@H]4[C@@H](C)C(C)CC[C@]4(C(=O)O)CCC23C)C1(C)C` (some centres not stated): the TGI turned out to be 28.3 µM in assay [1]; 29.5 µM in assay [2]; 30.5 µM in assay [3]; 32.7 µM in [4]; 34.6 µM in [5]; 32.3 µM in assay [6]. Moreover, the figures for the TGI in assay [7], in assay [8] and in [9] were 38.4 µM, 32.4 µM and 28.4 µM, respectively.
Turning to `COC(=O)C#CC(N)=O`, the TGI is over 100 µM in assay [1]; 47.5 µM in assay [2]; over 100 µM in assay [3]; over 100 µM in assay [4]; 42.2 µM in assay [5]; over 70.7 µM in assay [6]. In addition, the figures for the TGI in assay [7], in assay [8] and in [9] were 19.1 µM, 40.6 µM and over 100 µM, respectively.
